Here are results for 1 molecule from paper PMC9578143, “Small-Molecule Ebselen Binds to YTHDF Proteins Interfering with the Recognition of N^6-Methyladenosine-Modified RNAs” (ACS Pharmacology & Translational Science, 2022).

For experiment [1], the target named is T1, YTH domain of the YTHDC1 protein (Homo sapiens, UniProt Q96MU7).
T1 construct: made in house
The experiment is described as follows: Tryptophan fluorescence quenching assay. The format is binding. Here is the method:
(§1) Fluorescence was measured using a Tecan Infinite 200 Microplate reader (Tecan Group Ltd.), setting the […] wavelength at 288 nm and collecting the emission data at 330 nm.

The target in another experiment is T2, YTHDF1 YTH domain (Homo sapiens, UniProt Q9BYJ9).
T2 construct: The human YTHDF1 YTH domain (amino acids 365–554, PDB: 4RCJ); host or cells: E. coli BL21(DE3)
T2 sequence (Q9BYJ9 365-554): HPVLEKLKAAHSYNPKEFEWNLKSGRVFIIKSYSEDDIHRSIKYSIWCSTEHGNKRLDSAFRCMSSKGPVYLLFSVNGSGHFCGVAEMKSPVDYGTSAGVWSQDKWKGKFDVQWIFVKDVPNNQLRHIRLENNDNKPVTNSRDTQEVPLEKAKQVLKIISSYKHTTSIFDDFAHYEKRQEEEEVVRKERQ
The experiment is described as follows: Tryptophan fluorescence quenching assay. In kind it is binding. Here is the method: as §1

The target in another experiment is T3, human YTHDF2 YTH domain (Homo sapiens, UniProt Q9Y5A9).
T3 construct: the human YTHDF2 YTH domain (amino acids 383–553, PDB: 4WQN); made in house; host or cells: E. coli BL21(DE3)
T3 sequence (Q9Y5A9 383-553): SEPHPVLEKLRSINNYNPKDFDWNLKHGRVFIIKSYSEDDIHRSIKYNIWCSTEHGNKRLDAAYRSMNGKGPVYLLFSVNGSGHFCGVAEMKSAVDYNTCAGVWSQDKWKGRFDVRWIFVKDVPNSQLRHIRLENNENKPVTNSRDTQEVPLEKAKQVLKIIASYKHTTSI
Put plainly: Tryptophan fluorescence quenching assay. In kind it is binding. Here is the method: as §1

In experiment [2] the target is T4, YTHDF1 domain (Homo sapiens, UniProt Q9BYJ9).
T4 construct: The human YTHDF1 YTH domain (amino acids 365–554, PDB: 4RCJ); host or cells: E. coli BL21(DE3)
T4 sequence (Q9BYJ9 365-554): T2 sequence (Q9BYJ9 365-554)
Put plainly: Dynamic mass redistribution (DMR), label-free. The settings on record: immobilized YTHDF1 domain, binding at equilibrium. Here is the method: The protein was immobilized in a final volume of 15 μL/well of a 50 μg/mL solution in 20 mM sodium acetate buffer, pH 6, onto the surface of label-free microplates by amine-coupling chemistry. Different concentrations of ebselen (300 nM to 50 μM) were added to the plate and the mass of the molecular complex was measured every minute for 1 h. […]
probe with the YTH domain of YTHDF1 calculated with the DMR. rYTH was immobilized to the wells with amino-coupled chemistry and different concentrations of RNA were added to the plate.
Measurements were performed before adding the RNA, in order to define a baseline, and after the addition. Final response (pm) was obtained by subtracting to the last measurement the baseline.
Signal for each well was obtained by subtracting the signal of a reference area with the protein coated to an uncoated one. Data were fitted according to a four-parameter nonlinear regression […]
(1 picture or pasted object on this page, not shown here)

Experiment [3] addresses T5, YTH domain of YTHDF1 / biotinylated RNA probe 5′-Bi-CCGAm6ACUGUC-3′ (Homo sapiens, UniProt Q9BYJ9).
T5 construct: The human YTHDF1 YTH domain (amino acids 365–554, PDB: 4RCJ); host or cells: E. coli BL21(DE3)
T5 sequence (Q9BYJ9 365-554): T2 sequence (Q9BYJ9 365-554)
The experiment is described as follows: AlphaScreen competitive assay, saturation binding. The settings on record: 50 nM RNA, 50 nM protein, compound 0–100 μM. Here is the method:
The Amplified Luminescent Proximity Homogeneous Assay (ALPHA Assay) was performed in white 384-well Optiplates (PerkinElmer) in a final volume of 20 μL, and it was first optimized by titrating both the protein and the biotinylated RNA probe (5′-Bi-CCGAm6ACUGUC-3′, Dharmacon) to find the appropriate right protein/RNA ratio before the saturation of the detection signal. […] Anti-His acceptor beads (PerkinElmer) (20 μg/mL final concentration) and streptavidin donor beads (20 μg/mL final concentration) were added and the reaction was incubated in the dark at room temperature for 1 h to reach equilibrium. Light signals were detected with an Enspire Multimode Plate reader (PerkinElmer). […] The IC50 of ebselen was determined from the nonlinear regression fits of the data.

The next experiment deals with PC-3 cells. Put plainly: Cell viability assay (OZBlue). The settings on record: Homo sapiens. The format is cell-based. Here is the method:
PC-3 cells were seeded and treated in 96 plates for 24, 48, and 72 h. Cell viability was assessed by adding to the cells 10% of the culture medium volume of the OZBlue reagent (OZ Biosciences). Cells were incubated at 37 °C for 1 h. Fluorescence was then determined (excitation 560 nm and emission 590 nm) by a Tecan microplate reader. Cell survival was calculated with respect to control (DMSO), and IC50 values were determined by fitting with GraphPad Prism software.

Experiment [4] addresses T4, YTHDF1 domain. Put plainly: High-throughput screen, tryptophan quenching, Z-score. The format is binding. The settings on record: 5 μM protein, compounds at 10 μM. Here is the method: A Z factor of 0.53 was obtained. The high-throughput screen was performed by using an automatic liquid handling (Freedom EVO, Tecan), filling black 384-well plates with 15 μL of 5 μM protein in 20 mM Tris (pH 7.5), 150 mM NaCl, and 10% glycerol, and then by adding the library of compounds at a final concentration of 10 μM. Fluorescence was measured immediately after compound addition. The library used was the Spectrum Collection (Microsource Discovery System, Inc.), composed of 2560 compounds, of whom 60% are clinically used drugs, 25% natural products, and 15% other bioactive molecules. The Z-score was calculated as (X – μp)/σp, where X is the fluorescence intensity of the protein. Candidate molecules were considered all of the ones that were under the threshold of Z = −3, while all of the ones over that value were discarded.

Experiment [5] addresses T6, recombinant YTH domain of the YTHDF1 protein (Homo sapiens, UniProt Q9BYJ9).
T6 construct: The human YTHDF1 YTH domain (amino acids 365–554, PDB: 4RCJ); host or cells: E. coli BL21(DE3)
T6 sequence (Q9BYJ9 365-554): T2 sequence (Q9BYJ9 365-554)
Put plainly: ESI-MS of the protein after incubation with the compound. The format is binding.

Molecules are shown by their SMILES. Read-outs that look alike come from different tables or passages of the source.

As for `O=c1c2ccccc2[se]n1-c1ccccc1` [Compound 1, 2-phenyl-1,2-benzisoselenazol-3(2H)-one], the “Interaction with the YTH domain (tryptophan fluorescence, in words)” value in experiment [1] (listed as Ebselen) is reported as “cannot reduce tryptophan fluorescence”; in experiment [1] (listed as ebselen), “did not interact”. The half-maximal effective concentration (EC50) on YTHDF1 YTH domain (5 μM protein, read-out: EC50 (tryptophan quenching)) amounted to 1.63 µM; on YTHDF1 YTH domain (Table 1, read-out: EC50 (μM) (Tryptophan quenching)), 1.5 ± 0.24 µM; at human YTHDF2 YTH domain it was 1.66 µM; on YTHDF1 domain [2] it was 3.22 µM. Besides, the IC50 came to 3.565 ± 0.009 µM in experiment [3], 58.8 µM in the experiment with PC-3 cells (24 h), 49.6 µM with PC-3 cells (48 h) and 26.8 µM with PC-3 cells (72 h). In addition, the “Mean(FI.z-score)” value on YTHDF1 domain [4] is recorded as -3.819. The “Mass shift of the YTH domain (ESI-MS)” value in experiment [5] (5 μM protein, 50 μM compound, 60 min, no DTT) is 274.96 Da. Besides, in experiment [5] (in the presence of 1 mM DTT), the “Mass of the YTH domain after incubation (ESI-MS, in words)” value is on record as “matched that of the unmodified YTH domain”.
